Results on 86 molecules are retold here after a melting point compilation (Tetko et al.; mined from patent text by program, amines drawn as free bases though some values may be those of a salt).

The melting point is the temperature, or range, at which the solid turns liquid.

With `CC(C)(C)OC(=O)c1ncn2c1[C@@H]1CCCN1C(=O)c1c-2ccc(Cl)c1Cl`, the melting point was in the range of 213 to 214 °C. Consider `CC1(C)OCCc2nc(-c3ccccc3)sc21`, for which the melting point lay within 65 to 66 °C. `CCOC(=O)c1csc(Cc2ccccc2)n1` registered a melting point of 78 to 79 °C.

`Oc1ccc(N=C(C=COc2ccccc2)Oc2ccccc2)cc1`: the melting point is 110 °C.

In the case of `CC1(CNC(=O)CCl)OCCO1`, the melting point is 128 to 130 °C. With `CCn1c(Oc2cccc(NC(N)=O)c2)nnc1[C@@H](C)NS(=O)(=O)c1ccc(Cl)c(Cl)c1` the figure was 137 to 138 °C; with `C=Cc1ccc2c(c1)c(=O)c(C(=O)NCc1ccc(Cl)cc1)cn2C`, 193 to 196 °C. For the molecule `O=C(Cc1ccc(F)cc1)c1ccc(OC(F)F)cc1`, the melting point lay within 50 to 56 °C. Turning to `CCn1c2ccccc2c2cc3ccccc3c(C=O)c21`, the melting point was 95.5 to 96.5 °C. Molecule `CN1C(=O)CCc2cccc(N3CCN(CCCCOc4ccc5c(n4)NC(=O)NCC5)CC3)c21` registered a melting point of 80 to 82 °C. With `Cc1ccc2c(c1)C=Cc1cc(C)ccc1C2c1cn(-c2ccnc(NCC(=O)O)n2)c(=O)[nH]c1=S` the figure was 205 °C. Molecule `COC(=O)C1=C(C)NC(C)=C(C(=O)OCCN2CCN(C(c3ccc(F)cc3)c3ccc(F)cc3)CC2)C1c1cccc(Cl)c1Cl` (stereo unspecified) came in with a melting point of 90 to 93 °C. On to `O=C(Cn1c(-c2ccc3c(c2)OCO3)nc2ccccc21)c1ccccc1`, for which the melting point was in the range of 186 to 189 °C. As for `CC(=O)OC1CCC2C3CCC4=CC(=O)C(I)C(C)C4(C)C3CCC12C` (stereo unspecified), the figure is 102 °C; as for `CCC(C)N1CC(=O)N(C(C)CC)CC1=O` (stereo unspecified), 95.5 to 97.5 °C; as for `COc1ccccc1Sc1ccc2c(c1)CC[C@H]1NC(=O)CC[C@]21C`, 176 to 179 °C.

In turn, `Cc1cc(-c2c(F)cc3c(=O)c(Cc4c(O)cccc4O)cn(C4CC4)c3c2F)cc(C)n1` yielded a melting point of 308 to 310 °C. For the molecule `N#Cc1cncc(-c2cccc(OCc3ccccc3)c2)c1Nc1ccc2[nH]ccc2c1`, the melting point was in the range of 165 to 166 °C.

As to `Cn1c2cc(C(F)(F)F)ccc2c2oc(C(=O)Cl)cc21`, the melting point lay within 155 to 156 °C. `Cc1nc(OC(C)C)nc(C)c1N1CCCn2c1nc1c(Cl)ccc(C(OC(F)F)C(F)(F)F)c12` (stereo unspecified) came in with a melting point of 227 to 230 °C. As for `O=C1N(CC2CCCO2)c2ccccc2C12COc1cc3c(cc12)OCC3` (stereo unspecified), the figure is 162 to 164 °C.

Take `CCOC(=O)Cc1ccc2c(c1)NC(NC(C)C)=NS2(=O)=O`: the melting point is 182 to 184 °C. As for `O=[N+]([O-])c1ccc(C2=NNC(CO)Cc3cc4c(cc32)OCO4)cc1` (stereo unspecified), the melting point lay in the range of 132 to 134 °C. Consider `C=C(COc1ccc(C(=O)CCC(=O)OC)cc1)COc1ccc(C(C)=O)c(O)c1CCC`, for which the melting point fell in the range of 89 to 90 °C. On to `Cc1ccc([C@@H]2C[C@H]3C=C(c4n[nH]c(-c5ccc(F)cc5)c4-c4ccncc4)CCN3C2)cc1`, for which the melting point lay within 222 to 225 °C. With `Ic1cnc(-c2ccccn2)[nH]1` the figure was 175 to 179 °C; with `CC(C)c1nc(-c2ccccc2)n(-c2ccc(F)cc2)c1C=O`, 159 to 161 °C.

Consider `Cc1oncc1C(=O)c1ccccc1[N+](=O)[O-]`, for which the melting point is 104 to 106 °C. With `CC(O)c1cc2c(s1)C(C)(C)CCC2(C)C` (stereo unspecified) the figure was 53 to 55 °C; with `O=C(c1cccs1)c1cnn2c(-c3cccc(-n4cccc4)c3)ccnc12`, 211 to 213 °C; with `NC(=O)c1cc2ncccc2n1-c1ccc([N+](=O)[O-])cc1`, above 260 °C. As for `ClCc1c2ccccc2c(CCl)c2ccccc12`, the figure is 238 to 243 °C. In turn, `CS(=O)(=O)Nc1ccncc1-c1ccc2cnc(Nc3ccc(N4CCOCC4)cc3)nn12` displayed a melting point of 178 to 180 °C. In the case of `Cc1ccc(NC(=O)c2cccc([N+](=O)[O-])c2)cc1`, the melting point was 160 to 162 °C. In turn, `CCOC(=O)C1=C(CO)NC(SC)=NC1c1ccccc1SC` (stereo unspecified) had a melting point of 151 to 153 °C.

Molecule `Cc1cn(-c2cc(NC(=O)c3cccc4cc(Oc5ccnc(N)c5)ccc34)cc(C(F)(F)F)c2)cn1` registered a melting point of 236 to 239 °C. Molecule `CCOC(=O)C(=O)Nc1cc(Cl)c(Cl)c(Cl)c1[N+](=O)[O-]` showed a melting point of 84 °C. `O=c1c(=NO)c2ccccc2oc2cc(F)ccc12`: the melting point is 196 to 198 °C. In turn, `Brc1cccc(C2Cc3cnc(Nc4ccc(CCNCc5ccccc5)cc4)nc3-c3ccccc32)c1` (stereo unspecified) came in with a melting point of 98 to 100 °C. In turn, `CN1C(C(=O)NC2CCC(O)CC2)C(c2cccc(Cl)c2F)C2(C(=O)Nc3cc(Cl)ccc32)C1CC(C)(C)C` (stereo unspecified) showed a melting point of 188 °C.

In the case of `CCCN1CCO[C@@H]2c3cc(C(=O)N(C)C)ccc3CC[C@H]21` (relative stereo), the melting point was 85 to 87 °C. For the molecule `CC(C)(COS(N)(=O)=O)Oc1ccc(Cl)cc1`, the melting point was in the range of 76 to 79 °C.

`CCN(CC)C(=O)C(C)n1cc(C)c(-c2ccccc2)n1` (stereo unspecified) gave a melting point of 55 to 57 °C. Turning to `COC(=O)C(=CNc1ccc(O)cc1)C(=O)C=Cc1ccc2ccccc2c1`, the melting point was in the range of 191 to 192 °C. `COC(=O)C=CCC1C(=O)N2C(C(=O)OCc3ccc([N+](=O)[O-])cc3)=CCC12` (stereo unspecified): the melting point is 109 to 111 °C. With `CC(C=CC1(O)C(C)=CC2(OCCO2)c2ccccc21)=CCO` (stereo unspecified) the figure was 116 to 118 °C. In turn, `CC1(C)C=C(O)C(=O)C(C)(C)C1` came in with a melting point of 85 to 86 °C. With `COc1cc(O)c(C(=O)c2ccccc2F)c(Cl)c1`, the melting point lay within 85 to 90 °C.

For `C[Si](C)(C)c1cc(C(F)(F)F)ccc1OC1CCCCO1` (stereo unspecified), the melting point was 43 to 46 °C.

As for `CC(C)(C)CC(C)(C)c1cc(-n2nc3ccc(Sc4ccccc4)cc3n2)c(O)c(C(C)(C)c2ccccc2)c1`, the melting point is 124 to 125 °C. `CC1(C)Oc2c(ccc3oc(C(=O)O)cc(=O)c23)-c2ccc(Cl)cc21` returned a melting point of 257 to 258 °C.

The molecule `COC(=O)c1cccc(NC(=O)c2ccc(OC)c([N+](=O)[O-])c2)c1` gave a melting point of 233 to 235 °C. Molecule `CC(=O)Nc1cc2c(cc1[N+](=O)[O-])OCCCO2` came in with a melting point of 139 to 140 °C. The molecule `C1=CC(n2nc(-c3ccc4ccccc4c3)cc2-c2ccccc2)(n2nc(-c3ccc4ccccc4c3)cc2-c2ccccc2)CC=C1c1ccccc1` displayed a melting point of 287 °C. In the case of `COC(=O)c1ccc(OCCCl)cc1`, the melting point is 56 to 58 °C. Regarding `N=C(N)c1c[nH]c2ccc(CCNC(=O)c3ccc(-c4ccnc(OCCN5CCCC5)n4)cc3)cc12`, the melting point was 104 to 105 °C.

The molecule `COC(=O)C1=C(CCc2ccccc2)NC(CC(=O)N2CCN(C)CC2)=C(C(=O)OC)C1c1c(Cl)cccc1Cl` (stereo unspecified) yielded a melting point of 138 to 139 °C. With `C#CCn1nnc2cc3c(=O)n(C(C)Cn4ncnn4)nnc3cc2c1=O` (stereo unspecified) the figure was 209 to 211 °C.

Take `NC(=O)c1c(F)cccc1C(F)(F)F`: the melting point lay in the range of 143 to 144 °C. As for `CC1(C)C(=O)Nc2cccc(O)c21`, the figure is 224 to 225 °C. As for `O=C1CCCN1C1=NC(CF)(CF)Oc2ccc([N+](=O)[O-])cc21`, the melting point lay within 195 to 198 °C. `CCCC(=O)Nc1cc(C(F)(F)F)ccc1SCC#N` came in with a melting point of 88.5 to 89.5 °C.

Regarding `CCOC(=O)c1cc2n(c1)C(C)Nc1ccccc1-2` (stereo unspecified), the melting point is 102 to 103 °C.

In turn, `COC(=O)CC(CC(=O)OC)Sc1cc(OC)ccc1[N+](=O)[O-]` yielded a melting point of 91 °C.

On to `O=C(CCCCCCC1=CC(O)CC1=O)Oc1ccc(NC(=O)c2ccccc2)cc1` (stereo unspecified), for which the melting point fell in the range of 168 to 169 °C. The molecule `COc1cc2c3ccc(OC)c(OC)c3n(Cc3ccc(Br)cc3)c2cc1OC` had a melting point of 143 to 144 °C.

Consider `CO[C@H](C)C(=O)N[C@H]1CC[C@H](CCN2CCN(c3nccc4c3OCC4)CC2)CC1`, for which the melting point is 170 °C. Consider `COc1ccc(S(=O)(=O)N2C(=O)C(O[Si](C)(C)C)(c3ccccc3OC(F)(F)F)c3cc(Cl)ccc32)c(OC)c1` (stereo unspecified), for which the melting point worked out at 181 °C. As for `Cc1cccc(-c2n[nH]cc2Cl)c1`, the figure is 109 °C; as for `O=[N+]([O-])c1c[nH]c(-c2c(Cl)cc(C(F)(F)F)cc2Cl)n1`, 254 to 255 °C. With `O=C1N(CC2CN(Cc3ccccc3)CCO2)c2ccccc2C12COc1cc3c(cc12)OCCO3` (stereo unspecified) the figure was 88 to 100 °C.

In turn, `CCCc1nc(CO)c(C)[nH]1` showed a melting point of 134 to 136 °C. Molecule `CNC(=O)COc1cc(C(F)(F)F)cc(C(F)(F)F)c1` had a melting point of 98 to 99 °C. In the case of `COC(=O)CCc1ccc(N2CCN(c3ccc(C(=N)NC(=O)OC)cc3)S2(=O)=O)cc1`, the melting point is above 275 °C. Molecule `CCC(O)c1ccc(-c2ccc(Cl)cc2)o1` (stereo unspecified) showed a melting point of 74 to 75 °C.

Turning to `COC(=O)c1c(O)c2c([nH]c1=O)CCCCC2`, the melting point was above 255 °C. In turn, `COc1ccccc1CNc1ccc2c(-c3noc(C)n3)cccc2n1` had a melting point of 122 °C. `C#CCOc1cc(OCC#C)ncn1` showed a melting point of 74 °C. Turning to `O=C1C(c2cc3c(cc2O)OCCO3)c2ccccc2N1C(c1ccccc1)c1ccccc1` (stereo unspecified), the melting point is 157 to 160 °C. With `COc1ccc(C#N)cc1C(=O)NCCN1CCC(=C(O)c2ccc(F)cc2)CC1` the figure was 135 to 137 °C; with `Clc1cc(CCc2ccccn2)c2oc(-c3cnccn3)nc2c1`, 160 to 161 °C; with `COc1cccc(CNC(=O)COc2ccn3nc(-c4ccccc4)c(-c4ccc(=O)n(C(C)C)n4)c3c2)c1`, 166 to 168 °C. Molecule `Nc1c(F)c(F)cc2c1c(=O)c(C(=O)O)cn2C1CC1` returned a melting point above 300 °C. With `COc1cc(Oc2ccc(S(C)(=O)=O)nc2)cc2cc(C3=NCC(CC(=O)NCC(C)(C)O)S3)[nH]c12` (stereo unspecified) the figure was 173 to 174 °C. As for `CCCCN1C(=O)CC(c2cc(C(C)(C)C)c(O)c(C(C)(C)C)c2)C1=O` (stereo unspecified), the figure is 109 to 112 °C. `O=C(NN1CCCCC1)c1nn(-c2ccc(Cl)cc2Cl)c(-c2ccc(Cl)cc2)c1COCCO` returned a melting point of 194 °C.
